Laboratory results published in PubChem BioAssay AID1963448 (Molecular Pharmacology Branch, DTP, NCI, 2024).

Tested on: 616215-338-R-J1-PDC complex spheroid growth, % test/control
Test: Anticancer human tumor 616215-338-R-J1-PDC patient-derived colon adenocarcinoma cell line growth inhibition [Asc]
Conditions: for IC50: curve of first compound; for viability, T/C: stronger effect = lower value
Method: Multicellular complex tumor spheroid response to apoptosis pathway targeting inhibitors Alrizomadlin, Pelcitoclax, and Dasminapant in combination with a variety of drugs and investigational agents in selected tumor cell lines
The MDM2 inhibitor alrizomadlin, the Bcl-2/Bcl-xL inhibitor pelcitoclax, and the IAPs inhibitor dasminapant were evaluated both individually and in combination with standard of care and investigational anticancer small molecules within a complex spheroid model of solid tumors. . Complex spheroids include a stromal component modeled by human endothelial cells (HUVEC) and fibroblasts modeled by human mesenchymal stem cells (MSCs). The concentration ranges selected for each drug and investigational agent were based upon clinically achievable concentrations if the clinical Cmax of the agent was known.
Compounds. The drugs and investigational agents: alrizomadlin (APG-115; NSC831270), pelcitoclax (APG-1252; NSC835773), dasminapant (APG-1387;NSC834197), TAK-243 (NSC785004), copanlisib (NSC809693), olaparib (NSC753686), talazoparib (NSC767125), cobimetinib (NSC 768068), eltanexor (KPT-8602, NSC 794443), abemaciclib (NSC 768073), sotorasib (NSC818433), adagrasib (NSC 831453), MRTX-1133 (NSC 836407), Iadademestat (ORY1001, NSC 806812), and RMC-4630 (NSC839698), were obtained from the NCI Developmental Therapeutics Program Chemical Repository. The FDA-approved anticancer drug set is available from the Developmental Therapeutics Program at https://dtp.cancer.gov/organization/dscb/obtaining/available plates.htm. […] The stock solutions were prepared in dimethyl sulfoxide (DMSO, Sigma-Aldrich, St. Louis, MO, cat. D2650) at 800-fold the tested concentration and stored at -70 degrees C prior to their use. All drugs and investigational agents were tested over a range starting from a high concentration at or near the clinical Cmax and decreasing in half-log increments. If the clinical Cmax for an agent had not been determined, the highest concentration tested was 10 microM.
The patient-derived cancer (PDC) cell lines include five colon adenocarcinomas: 186277-243-T-J2-PDC, 616215-338-R-J1-PDC, 439559-082-T-J2-PDC, 463943-066-T-J2-PDC, and 519858-162-T-J1-PDC; three pancreatic carcinomas: 323965-272-R-J2-PDC, 521955-158-R6-J3-PDC, and 521955-158-R2-J5-PDC; two uterine sarcomas: 327498-152-R-J2-PDC and 993429-296-R-J1-PDC; two rhabdomyosarcomas: 755483-174-R-J1-PDC and 772245-204-R-J1-PDC; two soft tissue sarcomas: 126254-015-R-J1-PDC and 494315-158-R-J1-PDC; two malignant fibrous histiocytomas: 317291-083-R-J1-PDC and 596521-263-R-J1-PDC; two breast carcinomas: 171881-019-R-J1-PDC and 885512-296-R-J2-PDC; and one ovarian carcinoma: 6556581-035-R-J-PDC were obtained from the NCI PDMR, (https://pdmr.cancer.gov). The established cell lines HSSY-2 synovial sarcoma (RRID:CVCL 8719), SYO-1 synovial sarcoma (RRID:CVCL_7146), MPNST malignant peripheral neural sheath tumor were obtained from the Sloan Kettering Institute. The following established cell lines were purchased from the American Type Culture Collection (ATCC, Manassas, VA), Sor the received from the NCI repository:, PANC-1 pancreatic carcinoma (CRL-1469, RRID:CVCL_0480), OVCAR-5 ovarian carcinoma (RRID:CVCL_1628), OVCAR-8 ovarian carcinoma (RRID:CVCL_1629), , MCF-7 breast carcinoma (CRL-12584, RRID:CVCL_0031), MDA-MB-231 breast carcinoma (CRL-12532, RRID:CVCL_0062), NCI-H1876 small cell lung carcinoma (CRL-5902, RRID:CVCL_1503), NCI-H510A small cell lung carcinoma (HTB-184, RRID:CVCL_1565), NCI-H1417 (CRL-5869, RRID:CVCL_1469), and NCI-H196 small cell lung carcinoma (CRL-5823, RRID:CVCL_1509). Dr. Peter Houghton (Greehey Children's Cancer Research Institute, University of Texas Health Science Center, San Antonio, TX) provided Rh-18 rhabdomyosarcoma (RRID:CVCL_1659). Pooled donor human umbilical vein endothelial cells (HUVEC, Lonza, cat. CC-2519) and human mesenchymal stem cells (hMSC, Lonza, cat. PT-2501) were purchased from Lonza (Walkersville, MD).
Cell Culture. […]
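Note: spheroids exposed to agents for seven days before readout.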
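Throughout, for viability, T/C: 100% = DMSO vehicle control viability.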

`NC(=O)C(=Cn1cnc(-c2cc(C(F)(F)F)cc(C(F)(F)F)c2)n1)c1cncnc1` + CCN1C(C(=O)NC23CCC(C(=O)O)(CC2)CC3)C(c2cccc(Cl)c2F)C2(C(=O)Nc3cc(Cl)ccc32)C12CCCCC2 gave an IC50 (second compound 0.03 µM) of over 0.3 µM, an IC50 (second compound 0.0949 µM) of 0.0774 µM and an IC50 (second compound 0.3 µM) of 0.00642 µM. It also gave an IC50 (second compound 0.949 µM) of under 0.000949 µM, an IC50 (second compound 3 µM) of under 0.000949 µM and a viability, T/C (second compound 0.03 µM, first compound 0.000949 µM) of 89.7%. The viability, T/C (second compound 0.03 µM, first compound 0.003 µM) was 93.4%, the viability, T/C (second compound 0.03 µM, first compound 0.00949 µM) was 88.1% and the viability, T/C (second compound 0.03 µM, first compound 0.03 µM) was 83.7%. For the same molecule, the viability, T/C (second compound 0.03 µM, first compound 0.0949 µM) was 73.8%, the viability, T/C (second compound 0.03 µM, first compound 0.3 µM) was 56.2% and the viability, T/C (second compound 0.0949 µM, first compound 0.000949 µM) was 84.4%. It also gave a viability, T/C (second compound 0.0949 µM, first compound 0.003 µM) of 85.4%, a viability, T/C (second compound 0.0949 µM, first compound 0.00949 µM) of 75.5% and a viability, T/C (second compound 0.0949 µM, first compound 0.03 µM) of 61.3%. It also gave a viability, T/C (second compound 0.0949 µM, first compound 0.0949 µM) of 48.8%, a viability, T/C (second compound 0.0949 µM, first compound 0.3 µM) of 28.9% and a viability, T/C (second compound 0.3 µM, first compound 0.000949 µM) of 60%. The viability, T/C (second compound 0.3 µM, first compound 0.003 µM) was 57.2%, the viability, T/C (second compound 0.3 µM, first compound 0.00949 µM) was 48.2% and the viability, T/C (second compound 0.3 µM, first compound 0.03 µM) was 32.6%. The viability, T/C (second compound 0.3 µM, first compound 0.0949 µM) was 24.9%, the viability, T/C (second compound 0.3 µM, first compound 0.3 µM) was 6.51% and the viability, T/C (second compound 0.949 µM, first compound 0.000949 µM) was 49.2%. The viability, T/C (second compound 0.949 µM, first compound 0.003 µM) was 48.9%, the viability, T/C (second compound 0.949 µM, first compound 0.00949 µM) was 35.5% and the viability, T/C (second compound 0.949 µM, first compound 0.03 µM) was 11.2%. It also gave a viability, T/C (second compound 0.949 µM, first compound 0.0949 µM) of 3.85%, a viability, T/C (second compound 0.949 µM, first compound 0.3 µM) of 0.63% and a viability, T/C (second compound 3 µM, first compound 0.000949 µM) of 39.3%. It also gave a viability, T/C (second compound 3 µM, first compound 0.003 µM) of 32.4%, a viability, T/C (second compound 3 µM, first compound 0.00949 µM) of 17.5% and a viability, T/C (second compound 3 µM, first compound 0.03 µM) of 3.73%. For the same molecule, the viability, T/C (second compound 3 µM, first compound 0.0949 µM) was 1.87% and the viability, T/C (second compound 3 µM, first compound 0.3 µM) was 0.41%.

In the case of `NC1CCC(NC2CC2c2ccccc2)CC1` (stereo not given) + CCN1C(C(=O)NC23CCC(C(=O)O)(CC2)CC3)C(c2cccc(Cl)c2F)C2(C(=O)Nc3cc(Cl)ccc32)C12CCCCC2, the IC50 (second compound 0.03 µM) is reported as over 0.1 µM, the IC50 (second compound 0.0949 µM) is reported as over 0.1 µM and the IC50 (second compound 0.3 µM) is reported as over 0.1 µM. It also gave an IC50 (second compound 0.949 µM) of over 0.1 µM, an IC50 (second compound 3 µM) of over 0.1 µM and a viability, T/C (second compound 0.03 µM, first compound 0.000316 µM) of 106%. It also gave a viability, T/C (second compound 0.03 µM, first compound 0.001 µM) of 98.2%, a viability, T/C (second compound 0.03 µM, first compound 0.00316 µM) of 99.7% and a viability, T/C (second compound 0.03 µM, first compound 0.01 µM) of 104%. The viability, T/C (second compound 0.03 µM, first compound 0.0316 µM) was 100%, the viability, T/C (second compound 0.03 µM, first compound 0.1 µM) was 103% and the viability, T/C (second compound 0.0949 µM, first compound 0.000316 µM) was 95.5%. The viability, T/C (second compound 0.0949 µM, first compound 0.001 µM) was 100%, the viability, T/C (second compound 0.0949 µM, first compound 0.00316 µM) was 91.3% and the viability, T/C (second compound 0.0949 µM, first compound 0.01 µM) was 91.7%. For the same molecule, the viability, T/C (second compound 0.0949 µM, first compound 0.0316 µM) was 93.8%, the viability, T/C (second compound 0.0949 µM, first compound 0.1 µM) was 95.2% and the viability, T/C (second compound 0.3 µM, first compound 0.000316 µM) was 68.9%. The viability, T/C (second compound 0.3 µM, first compound 0.001 µM) was 67.6%, the viability, T/C (second compound 0.3 µM, first compound 0.00316 µM) was 73% and the viability, T/C (second compound 0.3 µM, first compound 0.01 µM) was 65.9%. It also gave a viability, T/C (second compound 0.3 µM, first compound 0.0316 µM) of 62.4%, a viability, T/C (second compound 0.3 µM, first compound 0.1 µM) of 68% and a viability, T/C (second compound 0.949 µM, first compound 0.000316 µM) of 73.4%. For the same molecule, the viability, T/C (second compound 0.949 µM, first compound 0.001 µM) was 72.2%, the viability, T/C (second compound 0.949 µM, first compound 0.00316 µM) was 83.7% and the viability, T/C (second compound 0.949 µM, first compound 0.01 µM) was 71.7%. It also gave a viability, T/C (second compound 0.949 µM, first compound 0.0316 µM) of 70.1%, a viability, T/C (second compound 0.949 µM, first compound 0.1 µM) of 72.7% and a viability, T/C (second compound 3 µM, first compound 0.000316 µM) of 54.6%. For the same molecule, the viability, T/C (second compound 3 µM, first compound 0.001 µM) was 58.9%, the viability, T/C (second compound 3 µM, first compound 0.00316 µM) was 58.2% and the viability, T/C (second compound 3 µM, first compound 0.01 µM) was 62.9%. It also gave a viability, T/C (second compound 3 µM, first compound 0.0316 µM) of 51% and a viability, T/C (second compound 3 µM, first compound 0.1 µM) of 54.3%.
